For 14 compounds, IC50 results are on record in ChEMBL document CHEMBL1147753, “Biphenyl-4-ylcarbamoyl thiophene carboxylic acids as potent DHODH inhibitors” (Bioorg Med Chem Lett, 2006).

The target in experiment [1] is Dihydroorotate dehydrogenase (quinone), mitochondrial (Homo sapiens, UniProt Q02127). Briefly: Inhibitory activity against recombinant human DHODH.
Another experiment concerns PBMC. Put plainly: Antiproliferative activity on human PBMC. In kind it is functional, cell-based.

Sequence of Dihydroorotate dehydrogenase (quinone), mitochondrial (Q02127 whole entry): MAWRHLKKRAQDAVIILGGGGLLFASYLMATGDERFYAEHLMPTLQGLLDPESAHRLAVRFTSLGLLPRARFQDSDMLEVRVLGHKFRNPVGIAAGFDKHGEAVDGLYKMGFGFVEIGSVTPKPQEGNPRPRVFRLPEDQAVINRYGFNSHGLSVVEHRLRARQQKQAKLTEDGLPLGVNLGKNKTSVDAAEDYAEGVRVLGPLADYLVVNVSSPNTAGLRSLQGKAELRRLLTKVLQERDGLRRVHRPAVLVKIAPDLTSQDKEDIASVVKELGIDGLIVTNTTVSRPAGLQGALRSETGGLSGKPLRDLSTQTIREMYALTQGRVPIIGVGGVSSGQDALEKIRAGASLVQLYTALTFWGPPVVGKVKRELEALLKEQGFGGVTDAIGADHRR

With `O=C(O)c1cscc1C(=O)Nc1ccc(-c2ccccc2)cc1`, the IC50 (commonly the concentration at which inhibition is half-maximal) in experiment [1] was determined as 1000 nM.

For `COc1cccc(-c2ccc(NC(=O)c3csc(C(=O)O)c3C(=O)O)c(F)c2)c1`, the IC50 in experiment [1] was more than 1000 nM. For `COc1cccc(-c2ccc(NC(=O)c3cocc3C(=O)O)c(F)c2)c1`, the IC50 in experiment [1] turned out to be 340 nM. As to `COc1cccc(-c2ccc(NC(=O)c3cc(C(=O)O)sc3C(=O)O)c(F)c2)c1`, the half-maximal inhibitory concentration (IC50) in experiment [1] was more than 1000 nM. On the same count and under the same terms, then `CCOc1cccc(-c2cc(F)c(NC(=O)c3ccsc3C(=O)O)c(F)c2)c1`, with 3 nM. On the same count and under the same terms, then `COc1ccccc1-c1ccc(NC(=O)c2ccsc2C(=O)O)cc1Cl`, with 12 nM; and `COc1cccc(-c2ccc(NC(=O)c3c(C(=O)O)csc3C(=O)O)c(F)c2)c1`, with more than 1000 nM. For the compound `CCOc1ccccc1-c1cc(F)c(NC(=O)c2ccsc2C(=O)O)c(F)c1`, in experiment [1], the IC50 was determined as 9 nM.

`COc1ccccc1-c1c(F)c(F)c(NC(=O)c2ccsc2C(=O)O)c(F)c1F`: in the experiment on PBMC, the IC50 came out at 2000 nM.

Consider `O=C(O)c1cscc1C(=O)Nc1c(F)cc(-c2ccccc2OC(F)(F)F)cc1F`, for which the figures for the IC50 (in experiment [1]; in the experiment on PBMC) were 10 nM and 2000 nM, respectively. Taken in the same sequence, the figures for `COc1cccc(-c2ccc(NC(=O)c3ccsc3C(=O)O)c(F)c2)c1` were 44 nM and 20000 nM. On the same counts, the results for `CCOc1cccc(-c2cc(F)c(NC(=O)c3cocc3C(=O)O)c(F)c2)c1` are 16 nM and 15000 nM. With `CCOc1ccccc1-c1cc(F)c(NC(=O)c2cscc2C(=O)O)c(F)c1`, in experiment [1], the IC50 was 10 nM. The same measure, in the same setting: then `O=C(Nc1ccc(-c2ccccc2)cc1)c1ccsc1C(=O)O`, with 303 nM.
